Counter-ions that a name gives are not always drawn.
Experiment: Solubility
Type: physicochemical
[1] = aqueous dilute acids, in the hot

solubility in alcohols in the hot (in the hot)	solubility in benzene	solubility in chloroform (chloroform)	solubility in ether	solubility in water (water)	solubility in methylene chloride (methylene chloride)	SMILES	also measured
	Soluble	Soluble		insoluble		CCOC(=O)CC(C(=O)OCC)n1ncc(-c2ccc(OC)cc2)nc1=O (stereo not shown) [Example 27, 2-diethoxysuccinyl 3-oxo 5-p-methoxyphenyl as.-triazine]	solubility in alcohols: Soluble
		Soluble		insoluble		COc1ccc(-c2cnn(CCCCCN3CCC(O)CC3)c(=O)n2)cc1 [Example 28, N 2-[ε-pentyl (4-hydroxypiperidine)] 3-oxo 5-p-methoxyphenyl as.-triazine]	solubility in alcohols: Soluble
Soluble		insoluble	insoluble	insoluble		Cc1ccc(C2C=NN(C(c3ccccc3)C(O)c3ccccc3)C(=O)N2)cc1 (stereo not drawn) [Example 29, N-2[α(1,2-diphenylethan 1-ol)] 3-oxo 4,5-dihydro 5-p-methylphenyl as.-triazine]	
Soluble		insoluble		insoluble	Soluble	COc1ccc(-c2cnn(C(c3ccccc3)c3ccccc3)c(=O)n2)cc1 [Example 30, 2-N-diphenylmethyl 3-oxo 5-p-methoxyphenyl as.-triazine]	
	insoluble	poorly soluble	insoluble		rather soluble	COc1ccc(-c2cnn(CCO)c(=O)n2)cc1 [Example 31, 2-ethanol 3-oxo 5-p-methoxyphenyl as.-triazine]	solubility in water in the hot (water, in the hot): Soluble
		Soluble		insoluble	Soluble	COc1ccc(-c2cnn(CCCC(=O)c3ccc(F)cc3)c(=O)n2)cc1 [Example 33, 2-N-(γp-fluorobutyrophenone) 3-oxo 5-p-methoxyphenyl as.-triazine]	
Soluble		rather soluble	poorly soluble	insoluble		COc1ccc(-c2cnn(C(C(=O)c3ccccc3)c3ccccc3)c(=O)n2)cc1 (stereo not shown) [Example 34, 2-N-desyl 3-oxo 5-p-methoxyphenyl as.-triazine]	
	Soluble	Soluble		insoluble		CCOC(=O)CCCn1ncc(-c2ccc(C)cc2)nc1=O [Example 35, 2-N-ethylbutyrate 3-oxo 5-p-methylphenyl as.-triazine]	solubility in alcohols: Soluble
Soluble		Soluble		insoluble	Soluble	Cc1ccc(-c2cnn(C(C(=O)c3ccccc3)c3ccccc3)c(=O)n2)cc1 (stereo not shown) [Example 36, 2-N-desyl 3-oxo 5-p-methylphenyl as.-triazine]	

The remaining lines, values behind:

SMILES	solubility in alcohols in the hot (in the hot)	solubility in benzene	solubility in chloroform (chloroform)	solubility in ether	solubility in water (water)	solubility in methylene chloride (methylene chloride)	also measured
CC(=O)Cn1ncc(-c2ccc(O)cc2)nc1=O [Example 2, 2-N-acetonyl 3-oxo 5-p-hydroxyphenyl as.-triazine]	Soluble in the hot, recrystallizes in the cold	Insoluble	Insoluble	Insoluble	rather soluble		solubility in dilute aqueous bases (dilute aqueous bases): soluble
CC(=O)Cn1ncc(-c2ccc(OC3CCOC3=O)cc2)nc1=O (stereo not shown) [Example 3, 2-acetonyl 3-oxo 5-p-(alphaoxy γ butryolactone)phenyl as.-triazine]		Insoluble	Insoluble	Insoluble	Insoluble		
COc1ccc(-c2cnn(CC(=O)C(C)C)c(=O)n2)cc1 [Example 5, 2-(3'-methyl 2'-one butyl) 3-oxo 5-p-methoxyphenyl as.-triazine]		poorly soluble	Soluble	poorly soluble	Insoluble	Soluble	
CC(=O)Cn1ncc(-c2ccc(C)cc2)nc1=O [Example 6, 2-acetonyl 3-oxo 5-p-methylphenyl as.-triazine]			Soluble	insoluble	insoluble	Soluble	
CC(=O)Cn1ncc(-c2ccccc2)nc1=O [Example 7, 2-acetonyl 3-oxo 5-phenyl as.-triazine]			Soluble	insoluble	insoluble	Soluble	
COc1ccc(-c2cnn(CCN3CCN(c4cccc(Cl)c4)CC3)c(=O)n2)cc1 [Example 10, 2 β ethyl(metachlorophenyl)piperazine 3-oxo 5-p-methoxyphenyl as.-triazine]			Poorly soluble			Poorly soluble	solubility in aqueous dilute acids in the hot [1]: Soluble
CC(=O)c1ccc(N2CCN(CCCn3ncc(-c4ccc(C)cc4)nc3=O)CC2)cc1 [Example 11, 2-γ propyl p-piperazinoacetophenone 3-oxo 5-methylphenyl as.-triazine]	Soluble			insoluble	insoluble		solubility in alcohols: insoluble; solubility in chloroform in the hot (chloroform, in the hot): Soluble; solubility in methylene chloride in the hot (methylene chloride, in the hot): Soluble
COc1ccc(C2C=NN(CCCN3CCN(c4cccc(Cl)c4)CC3)C(=O)N2)cc1 (stereo not shown) [Example 12, 2-N-γ propyl(m-chlorophenylpiperazine) 3-oxo 4,5-dihydro 5-p-methoxyphenyl as.-triazine]	Soluble		Soluble	insoluble	insoluble	Soluble	solubility in aqueous dilute acids in the hot [1]: Soluble
Cc1ccc(-c2cnn(CCCCN3CCN(c4cccc(Cl)c4)CC3)c(=O)n2)cc1 [Example 13, 2-N-δ butyl (m-chlorophenyl piperazine) 3-oxo 5-p-methylphenyl as.-triazine]	Soluble		Soluble	insoluble	insoluble	Soluble	solubility in aqueous dilute acids in the hot [1]: Soluble
Cc1ccc(-c2cnn(CCCN3CCN(c4cccc(Cl)c4)CC3)c(=O)n2)cc1 [Example 14, 2-γ(m-chlorophenylpiperazine)-propyl 3-oxo 5-p-methylphenyl as.-triazine hydrochloride]			Soluble	insoluble	insoluble	Soluble	
COc1ccc(-c2cnn(CCCCCN3CCN(c4cccc(Cl)c4)CC3)c(=O)n2)cc1 [Example 15, 2-N (ε-pentyl m-chlorophenyl piperazine) 3-oxo 5-p-methoxyphenyl as.-triazine]			Soluble	insoluble	insoluble	Soluble	
COc1ccc(-c2cnn(CCN3CCN(c4cccc(C(F)(F)F)c4)CC3)c(=O)n2)cc1 [Example 16, 2-β ethyl (m-trifluoromethylphenyl) piperazine 3-oxo 5-p-methoxyphenylas.-triazine]		poorly soluble	Soluble	insoluble	insoluble	Soluble	
COc1ccc(-c2cnn(CCCN(C)C)c(=O)n2)cc1 [Example 17, 2-γ dimethylaminopropyl 3-oxo 5-p-methoxyphenyl as.-triazine]		Soluble	Soluble	insoluble	insoluble	Soluble	solubility in alcohols: Soluble; solubility in aqueous dilute acids (aqueous dilute acids): Soluble
COc1ccc(-c2cnn(C(CCO)C(=O)O)c(=O)n2)cc1 (stereo not shown) [Example 18, 2-[3-(3-carboxy 1-propanol)] 3-oxo 5-p-methoxyphenyl as.-triazine]			Poorly soluble		insoluble	Poorly soluble	solubility in alcohols: rather soluble
Cc1ccc(-c2cnn(C(CCO)C(=O)O)c(=O)n2)cc1 (stereo not shown) [Example 19, 2-[3-(3-carboxy 1-propanol)] 3-oxo 5-p-methylphenyl as.-triazine]		Poorly soluble	Poorly soluble	insoluble	insoluble		solubility in alcohols: Poorly soluble
Cc1ccc(-c2cnn(C3CCOC3=O)c(=O)n2)cc1 (stereo not shown) [Example 20, 2-butyrolactone 3-oxo 5-p-methylphenyl as.-triazine]		poorly soluble	Soluble	poorly soluble	insoluble	Soluble	
CCOc1ccc(-c2cnn(CC(C)=O)c(=O)n2)cc1 [Example 24, 2-acetonyl 3-oxo 5-p-ethoxyphenyl as.-triazine]	soluble			insoluble	insoluble		solubility in chlorinated solvents: Soluble
COc1ccc(-c2cnn(CC(C)=O)c(=O)n2)c(OC)c1 [Example 25, 2-acetonyl 3-oxo 5-(2',4'-dimethoxy)phenyl as.-triazine]			Soluble	insoluble	insoluble	Soluble	
CC(=O)Cn1ncc(-c2cccs2)nc1=O [Example 26, 2-acetonyl 3-oxo 5-γ-thienyl as.-triazine]				insoluble	insoluble		solubility in chlorinated solvents: Soluble

— patent US4851411A, “5-monoaryl as.-triazin-3-ones substituted in 2-position, and their use as medicaments” (Pierre Fabre Medicament, priority 1986, dated 1989)
